From publication PMC9582160, “Inhibition of MRGPRX2 but not FcεRI or MrgprB2-mediated mast cell degranulation by a small molecule inverse receptor agonist” (Frontiers in Immunology, 2022)

Target: T1, MrgprB2 (Mus musculus, UniProt Q3KNA1)
T1 construct: endogenous receptor in mouse peritoneal mast cells
T1 sequence (Q3KNA1 1-338): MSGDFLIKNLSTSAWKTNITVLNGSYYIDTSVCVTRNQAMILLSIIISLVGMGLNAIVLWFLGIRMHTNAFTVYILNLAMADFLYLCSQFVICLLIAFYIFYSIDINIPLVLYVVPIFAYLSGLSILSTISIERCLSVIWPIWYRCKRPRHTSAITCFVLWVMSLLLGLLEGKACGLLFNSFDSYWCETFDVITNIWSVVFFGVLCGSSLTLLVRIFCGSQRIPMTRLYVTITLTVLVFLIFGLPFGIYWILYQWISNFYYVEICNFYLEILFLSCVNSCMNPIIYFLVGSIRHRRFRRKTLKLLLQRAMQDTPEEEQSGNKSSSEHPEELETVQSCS
Assay: agonist: β-hexosaminidase release in WT peritoneal mast cells at […], absent in MrgprB2-/- cells
Assay type: cell-based

## C=CC[N+]1([C@H]2C[C@H]3[C@@H]4CC[C@H]5C[C@H](O)[C@@H](N6CCOCC6)C[C@]5(C)[C@H]4CC[C@]3(C)[C@H]2OC(C)=O)CCCC1 [rocuronium]
  agonist: β-hexosaminidase release in WT peritoneal mast cells at 20 μg/ml, absen: mediated via MrgprB2 by demonstrating that PMCs cultured from MrgprB2^−/− mice do not respond to these agonists
